The test system of one data set is HIV-2. The data set is described as follows: HIV-2 induced syncytia assay, ROD-2 infected cells cocultured with H9 target cells. The data set is classed as cell-based. Further details: key to number of syncytia formed: 4 being multiple syncytia widely distributed; 0 indicating no syncytia observed; s=small; m=medium; L=large syncytia. Conditions: for number of syncytia formed: HIV-2, number and size of syncytia. Here is the method:
For the assay of HIV-1 fusion, Supt T1 cells were used as target cells. They fuse rapidly when cocultured with HIV-1 (H9/IIIb) producing cell lines. For the assay of HIV-2 mediated cell fusion, H9 cells were used as target cells. They fuse rapidly when cocultured with HIV-2 (CEMROD-2) producing cell lines. HIV infected cells were plated in 96 well plates (10⁴ cells/well in RPMI 1640 + 10% FCS) and incubated with or without dilution of compounds for 30 minutes at 37°C. Target cells are then added 5 x 10⁵/well and the number of syncytia are qualitatively determined after the incubation periods described in the text. […]

A further data set is described as follows: Water solubility at 0°C. Type of data set: physicochemical. Here is the method: The cyclic oligosaccharide derivatives useful in the present invention are highly hydrophilic and therefore very water soluble. A highly hydrophilic character probably is important to allow interaction with cellular surfaces. The hydrophilic activity is likely roughly indicated by the affinity to water, as measured by water solubility. It is important to measure the same at 0°C since at higher temperatures the most suitable derivative have solubilities so high that meaningful measurements are difficult.

In data set [1] the test system is HIV-1. In words: Viral RNA analysis by dot blot. Conditions: 1 mM. Type of data set: cell-based. The method, then: Virus particles were incubated with target cells in the presence or absence of […] of β-CD-14S. At 72 hours post infection, the cells were washed and dot blot assays were performed to determine the presence or absence of viral RNA production. In (A), target cells were infected in the presence of sulfated β-cyclodextrin (lane A), in the absence of cyclodextrins (lane B), or in the presence of unsubstituted β-cyclodextrin (lane C). 1/2 dilutions of cells are from left to right starting with 10⁶ cell/well utilized. In (B), virally infected cells (+) or uninfected cells (-) were assayed for their ability to produce viral RNA by dot blot analysis. CD = infected cells incubated with 1 mM of β-CD-14S. 1/2 dilutions of cells are from top to bottom starting with 10⁶ cell/well.
Virus treated cells were grown in tissue culture and harvested for assay at 72 hrs. post-infection. The cell concentrations were then adjusted to 1 x 10⁶ cells/m1 with phosphate buffered saline and spotted directly onto prewetted gene screen utilizing a dot blot apparatus. The filter was then fixed in 3% NaC1, 10 mM NaH₂PO₄, (pH 7.2) containing 1% gluteraldehyde at 4°C for 1 hr. The fixed blot was then rinsed three times with proteolytic buffer (50mM EDTA, 0.1 M Tris-HC1 (pH 8.0), 20 µg/ml proteinase K) for 30 minutes at 37°C. The filter was air dried until being probed. A Sall-Xho1 probe derived from the pIIIenv1 plasmid (a generous gift of Dr. J. Sodrofsky) and encoding the envelope region of the HXB2, HIV-1 virus was labeled by the random primer method using standard technology and hybridized to the filter as previously described (Weiner et al., 1986, Cell Immunol. 100:197).
To determine if the cyclodextrins were interfering with steps relevant to viral replication, the ability of these compounds to inhibit viral nucleic acid synthesis was determined. Virus particles were incubated with target cells in the presence or absence of 1 mM of β-CD-14S. At 72 hours post-infection, the cells were washed and dot blot assays were performed to determine the presence or absence of viral RNA production. […]

The subject of data set [2] is HIV-1. In words: HIV-induced syncytia formation over time, comparison with dextran sulfates. The data set is classed as cell-based. Conditions: during the culture period (48 hours). Here is the method:
Figure 6 compares the effects of dextran polysulfate and substituted β-cyclodextrins on HIV infectivity. In (A) degree of syncytia inhibition is shown on the ordinate for each compound added. SUL = 600 µM β-CD-14S, AL = 600 µM unsubstituted β-CD, Pro = 600 µM propoxylated β-CD, 2MET = 300 µM methoxylated β-CD, DS5 = 600 µM dextran sulfate 5,000, DS500 = 600 µM dextran sulfate 500,000. Results for each of 3 time points are shown. In (B) similar results utilizing reverse transcriptase assays are shown. Infectious virus particles were incubated in the presence of sulfated β-cyclodextrin (lane 1), dextran sulfate 5000 (lane 2) or media (lane 3) for 6 days at which time cells were resuspended in fresh media and allowed to incubate a further 10 days before being harvested. Reverse transcriptase activity was assayed as described in Section 6.1, infra. 1/2 dilutions of the compound added are shown from bottom (highest concentration at 2.5 mM) to top (lowest concentration).
For the assay of HIV-1 fusion, Supt T1 cells were used as target cells. They fuse rapidly when cocultured with HIV-1 (H9/IIIb) producing cell lines. For the assay of HIV-2 mediated cell fusion, H9 cells were used as target cells. […] Target cells are then added 5 x 10⁵/well and the number of syncytia are qualitatively determined after the incubation periods described in the text.

Data set [3] relates to HTLV-IIIb cell free virus. In words: Reverse transcriptase assay of HIV infectivity, cell free virus on target cells, 10 day incubation. The data set is classed as cell-based, HIV-1. Here is the method: Figure 2 illustrates the effects of cyclodextrin and cyclodextrin derivatives on HIV infectivity as determined by reverse transcriptase activity. Samples assayed are (A) untreated control cells, (B) β-cyclodextrin unsubstituted ring, (C) partially sulfated β-cyclodextrin ring, (D) propylated β-cyclodextrin ring, (E) sulfated β-cyclodextrin ring, and (F) methylated β-cyclodextrin ring. Numbers indicate 1/2 dilutions of test compounds with 1 = 2.5 mM concentration of compound.
Virus infected cells were pelleted by centrifugation and 50 µl of culture suprenatant was collected from each well for assay. Culture supernatant (25 µl) was plated in 96 well round bottomed plates and 50 µl of transcriptase cocktail was added to each well. Cocktail is 50 mM Tris-HC1, pH 8.0, 20 mM DTT, 0.6 mM MnC1₂, 60 mM NaC1, 0.05% NP-40, 5 µg/ml dt (oligodeoxythymidilic acid), 10 µg/ml poly A (polyriboadenylic acid), 10 µM dTTP, 1 Ci/mm ³²P dTTP. Plates were then incubated for 60 minutes at 37°C. After incubation samples were spotted onto Whatman DEAE-81 paper, washed and analyzed by counting or direct autoradiography.
The ability of cyclodextrins to inhibit HIV infection was assessed in vitro utilizing reverse transcriptase assays as described Section 6.1.2, supra. HTLV-IIIb cell free virus stocks were inoculated onto target cells in the presence or absence of the synthetic compounds.

On to “beta-cyclodextrin tetradecasulfate [Beta-CD-14S]”, for which the “number of syncytia formed” value is 0 in the data set on HIV-2 (1.3 mM); 0 in the data set on HIV-2 (2.5 mM); 4 L in the data set with HIV-2 (.01 mM); 4 L with HIV-2 (.02 mM); 4 L with HIV-2 (.04 mM); 3 L with HIV-2 (.08 mM). In addition, the “number of syncytia formed” value in the data set on HIV-2 (.16 mM) came out at 2m; in the data set on HIV-2 (.32 mM), 1 s; in the data set on HIV-2 (.63 mM), 0. Also, the “inhibition of syncytia formation mediated by ROD-2” value in the data set on HIV-2 (result in words) was “inhibited syncytia formation”. The “Solubility 0°C” value in the data set “Water solubility at 0°C” stood at 42 g/100ml H₂O. In addition, in the data set on HIV-1 [1] (already infected cells incubated with compound), the “ability of infected cells to produce viral RNA” value is given as “not inhibited in their ability to produce viral RNA”. In addition, the “HIV-1 specific RNA” value in the data set on HIV-1 [1] (target cells infected in the presence of compound, 72 hours post-infection) is on record as “little or no HIV-1 specific RNA was detected”. Also, the anti-syncytial activity entry with HIV-1 [2] is on record as “remained unchanged”. For the same substance, the “inhibition of viral infectivity (reverse transcriptase activity)” value in data set [3] (1/2 dilutions from 2.5 mM, result in words) is recorded as “extremely effective”. Besides, the “concentrations at which some reverse transcriptase activity was apparent” value in data set [3] (dilution 4) was no more than 320 µM. In addition, the “concentrations at which reverse transcriptase activity was dramatically inhibited” value in data set [3] (dilution 6) is on record as no less than 80 µM.

The values are drawn from patent EP0423240B1, “MODULATION OF VIRUS-HOST CELL INTERACTIONS USING CYCLIC OLIGOSACCHARIDES” (THE TRUSTEES OF THE UNIVERSITY OF PENNSYLVANIA, priority 1988, dated 1990).
